Data on four compounds can be found in patent US20240132522A1, “HETEROCYCLIC COMPOUNDS AND METHODS OF USE THEREOF” (1cBio, Inc., priority 2022, published 2024).

Where a name gives a salt, the structure may show the parent alone.

recombinant human PARP2, sequence (Q9UGN5 whole entry): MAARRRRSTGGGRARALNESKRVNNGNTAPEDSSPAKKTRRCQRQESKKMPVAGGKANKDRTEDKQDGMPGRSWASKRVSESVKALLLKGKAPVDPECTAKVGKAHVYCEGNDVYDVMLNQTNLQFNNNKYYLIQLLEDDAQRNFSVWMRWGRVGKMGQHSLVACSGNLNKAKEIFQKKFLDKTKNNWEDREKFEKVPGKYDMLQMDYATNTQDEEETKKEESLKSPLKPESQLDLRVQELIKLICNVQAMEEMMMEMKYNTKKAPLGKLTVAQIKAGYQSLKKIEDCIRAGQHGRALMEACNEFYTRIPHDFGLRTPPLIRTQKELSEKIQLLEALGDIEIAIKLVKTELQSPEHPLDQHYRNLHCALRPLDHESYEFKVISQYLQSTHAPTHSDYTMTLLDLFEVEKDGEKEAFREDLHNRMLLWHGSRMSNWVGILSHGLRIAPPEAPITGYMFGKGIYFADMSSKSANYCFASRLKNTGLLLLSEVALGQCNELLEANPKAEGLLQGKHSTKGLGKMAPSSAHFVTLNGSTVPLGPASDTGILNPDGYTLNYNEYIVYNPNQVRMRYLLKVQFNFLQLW

In this assay the target is recombinant human PARP2 (Homo sapiens, UniProt Q9UGN5). Kind of assay: PARP2 fluorescence polarization binding assay. Conditions: binding IC50, GST-tagged PARP2 20 nM, PARPi-FL probe 3 nM, 4 h at RT. As for the experimental part:
In some embodiments, the biological assay measures PARP-2 binding by way of fluorescence polarization measurements. In some embodiments, binding of a test compound to recombinant human PARP-2 reduces the amount of binding of a fluorescent probe, and consequently reduces the detected level of fluorescence polarization. […] In some embodiments, the serial dilutions, e.g., 100 nL of serial dilution, 90 nL of serial dilution, 80 nL of serial dilution, 70 nL of serial dilution, 60 nL of serial dilution, 50 nL of serial dilution, 30 nL of serial dilution, 20 nL of serial dilution, or 10 nL of serial dilution, are added to a multi-welled plate, e.g., a 1536-well plate, a 384-well plate, or a 96-well plate. In some embodiments, PARP-2, e.g., GST-tagged PARP-2, is diluted in assay buffer, e.g., 50 μL of assay buffer, 40 μL of assay buffer, e.g., 30 μL of assay buffer, 20 μL of assay buffer, 10 μL of assay buffer, or 5 μL of assay buffer, and is added to the plate. In some embodiments, the plate is centrifuged, e.g., at 1000 rpm for 1 min, and incubated, e.g., incubated for 30 minutes at room temperature (RT). In some embodiments, a fluorescent probe, e.g., 10 μL of 6 nM PARPi-FL (TOCRIS, Cat #6461), is diluted in an assay buffer and is added to the plate. […] In some embodiments, the plate is centrifuged, e.g., at 1000 rpm for 1 minute, and the assay plate is incubated, e.g., for 4 h at RT. In some embodiments, the samples in each well are read using a plate reader, e.g., an Envision instrument using excitation=480 nm, and emission wavelength=FITC FP-P pol 535 nm & FITC FP-S pol 535 nm). […] In some embodiments, binding IC50 values are calculated using XLFit (equation 201: […])^D))), where A=bottom, B=top, C=IC50, and D=slope) with a floating top and bottom for curves. Compounds of the present disclosure were tested in a PARP2 fluorescence polarization binding assay at Pharmaron (Beijing, P.R. China). In this biochemical assay, binding of test compound to recombinant human PARP2 reduces the amount of binding of a fluorescent probe, and consequently reduces the detected level of fluorescence polarization. Test compound stock solutions were prepared in DMSO and then serially diluted into 10 concentrations by 3-fold dilution in a 384-well plate using a TECAN EVO200. […] Samples in each well were read using an Envision instrument (Perkin-Elmer; Ex=480 nm Em=FITC FP-P pol 535 nm & FITC FP-S pol 535 nm). […] Binding IC50 values were calculated using XLFit (equation 201: […])^D))), where A=bottom, B=top, C=IC50, and D=slope) with a floating top and bottom for curves.
For orientation: Polarisation of emitted light reports the rotation of a fluorescent probe.
By IC50 is commonly meant the concentration that gives 50% inhibition. `CCc1cc2ncc(CN3CC4(C3)CN(c3ccc(C(=O)NC)nc3)C4)cc2[nH]c1=O` [Compound No. 9, 5-(6-((7-ethyl-6-oxo-5,6-dihydro-1,5-naphthyridin-3-yl)methyl)-2,6-diazaspiro[3.3]heptan-2-yl)-N-methylpicolinamide formate]: the IC50 was no less than 3 µM.

With `CCc1cc2ncc(CN3CCCN(c4ccc(C(=O)NC)nc4)CC3)cc2[nH]c1=O` [Compound No. 6, 5-(4-((7-ethyl-6-oxo-5H-1,5-naphthyridin-3-yl)methyl)-1,4-diazepan-1-yl)-N-methylpyridine-2-carboxamide], the concentration for half-maximal inhibition (IC50) is no less than 3 µM.

For the compound `CCc1cc2ncc(CNC3CC(Nc4ccc(C(=O)NC)nc4)C3)cc2[nH]c1=O` (stereo not shown) [Compound No. 29, 5-((3-(((7-ethyl-6-oxo-5,6-dihydro-1,5-naphthyridin-3-yl)methyl)amino)cyclobutyl)amino)-N-methylpicolinamide], the IC50 was no less than 3 µM.

For `CCc1cc2ncc(CN3CC4CN(c5ccc(C(=O)NC)nc5)CC4C3)cc2[nH]c1=O` (stereo not shown) [Compound No. 7, 5-(5-((7-ethyl-6-oxo-5,6-dihydro-1,5-naphthyridin-3-yl)methyl)hexahydropyrrolo[3,4-c]pyrrol-2(1H)-yl)-N-methylpicolinamide], the 50% inhibitory concentration (IC50) is no less than 3 µM.
